From patent US9181249B2, “Substituted pyrido[3,4-b]pyrazines as GPR6 modulators” (Takeda Pharmaceutical Company Limited, priority 2013, dated 2015)
Marks after values point to notes of the source that are not given here.

How the values were obtained:
[1] = system: haloperidol-induced catalepsy; experiment: Example B Haloperidol-Induced Catalepsy In Vivo Rodent Parkinson's Disease Model; settings: Rat
Source text: Haloperidol-Induced Catalepsy In Vivo Rodent Parkinson's Disease Model
The motor symptoms of Parkinson's disease include akinesia, bradykinesia, rigidity, tremor and postural abnormalities and are associated with the loss of nigral dopaminergic cells and a decline in striatal dopamine levels. Administration of haloperidol to rodents leads to a transient parkinsonian-like state that is reversed by the administration of L-Dopa (Duty, S.; Jenner, P. Br. J. Pharmacol. (2011), 164, 1357-1391) and other drugs that have been clinically validated for the treatment of Parkinson's disease. Haloperidol antagonizes dopamine D2 and, to a lesser extent, D1 receptors in medium spiny neurons that comprise the indirect and direct pathways of the motor circuit respectively. The resultant block of striatal dopamine transmission results in abnormal downstream firing within the basal ganglia circuits that is manifest as symptoms of muscle rigidity and catalepsy. Catalepsy has been postulated to reflect the clinical features of Parkinson's disease, whereby patients experience an inability of to initiate movements.
Male Sprague-Dawley rats (Charles River, Calco, Italy) weighing 175-200 g are used. Alternatively, male C57Bl6 mice weighing 25-35 g were used. The cataleptic state was induced by the subcutaneous administration of the dopamine receptor antagonist haloperidol (0.3 mg/kg, sc), 90 min before testing the animals on the vertical grid test. For this test, the rats or mice were placed on the wire mesh cover of a 25 cm×43 cm plexiglass cage placed at an angle of about 70 degrees with the bench table. The subject was placed on the grid with all four legs abducted and extended (“frog posture”). The use of such an unnatural posture is essential for the specificity of this test for catalepsy. The time span from placement of the paws until the first complete removal of one paw (descent latency) was measured maximally for 120 sec for rats. For mice, the front paws of a mouse was placed on a horizontal metal bar raised 2″ above a Plexiglas platform and time was recorded for up to 30 seconds per trial. The test ended when the animal's front paws returned to the platform or after 30 seconds. The test was repeated three times and the average of the three trials was reported as the intensity index of catalepsy.
Catalepsy was measured 30 min, 120 min, and/or 240 min after dosing the subjects a 0.3 mg/kg i.p. dose of haloperidol along with the GPR6 modulator test compound. Test compound plasma and brain levels were determined by collected tissue samples at the end of the experiment, which was either at the 120 or 240 min time point. A representative number of compounds of the invention were administered in a dose range from 0.1 to 100 mg/kg i.p, sc or po in conjunction with haloperidol. The A2a antagonist KW6002 (istradefylline) was dosed at 0.6 mg/kg i.p. as a positive control.

[2] = system: 6-hydroxydopamine lesioned rats (motor activity); experiment: Example C 6-Hydroxydopamine Lesion Model In Vivo Rodent Parkinson's Disease Model; settings: adult female rats, bilateral striatal 6-hydroxydopamine lesion, counts for 3 hours after dosing
Experimental: 6-Hydroxydopamine Lesion Model In Vivo Rodent Parkinson's Disease Model
Adult female rats (10) were first assessed for pre-surgery motor activity using an automated activity tracking system that records beam breaks across the testing arena floor. Beam breaks were summed over the first 3 hours after the animals were placed into the arena and recorded as activity counts. To selectively damage dopaminergic nerve terminals in the striatum, 20 μg of the 6-hydroxydopamine was injected directly into the striatum bilaterally (i.e., on both sides of the brain). After 4 weeks of recovery, the rats were again tested for motor activity, and a significant reduction in activity counts was observed. Vehicle and the compound of Example 47 (0.5% methylcellulose) was orally dosed at 0.1, 1.0, or 10 mg/kg in a cross-over study design (5-10 day wash out period), and after dosing activity counts were measured for 3 hours. At the end of the study period, when each animal had received each treatment once, the data were analyzed. The activity counts (standard error of the mean) for the group pre-surgery and post-surgery and for treated and vehicle control were determined and are provide in Table 3 below: […]

Compound: CC(=O)N1CCc2nc(N3CCC(Oc4ccc(F)cc4F)CC3)c(NC(C)C)nc2C1 [Example 47, 1-(2-(4-(2,4-difluorophenoxyl)piperidin-1-yl)-3-(isopropylamino)-7,8-dihydropyrido[3,4-b]pyrazin-6(5H)-yl)ethanone]
- % reversal 30 min ([1]; 0.1 mpk i.p.): −5.7%
- % reversal 120 min ([1]; 0.1 mpk i.p.): 27.3%
- % reversal 30 min ([1]; 1 mpk i.p.): 39.1%
- % reversal 120 min ([1]; 1 mpk i.p.): 57.9* %
- % reversal 30 min ([1]; 10 mpk i.p.): 83.4* %
- % reversal 120 min ([1]; 10 mpk i.p.): 76.5* %
- % reversal 30 min ([1]; 30 mpk i.p.): 75.7* %
- % reversal 120 min ([1]; 30 mpk i.p.): 82.1* %
- activity counts, Mean ([2]; orally dosed 0.1 mg/kg): 11422*
- activity counts, Mean ([2]; orally dosed 1.0 mg/kg): 15334*
- activity counts, Mean ([2]; orally dosed 10 mg/kg): 19368*
